Measured values taken from patent EP0279757A1, “Kit for use as an agent for the selective destruction of transformed cells” (priority 1987, dated 1988).

Experiments:
Format in all cases: cell-based
cellules transformées = test: Selective destruction of transformed cells by micro-injection into one target cell followed by activation at 400 nm; settings: set of 100 transformed cells, activation at 400 nm for 5 to 10 minutes
From the text: Pour être utilisée conformément à l'objectif visé, la susbtance (a) doit être acheminée par toute technique appropriée dans au moins l'une des cellules transformées à détruire, à partir de laquelle elle passe de manière spécifique dans les autres cellules transformées du même site, par l'intermédiaire des "gap junctions". La technique préférée actuellement est la micro-injection, bien connue de l'homme du métier et décrite en détail dans l'article de Cancer Res. cité plus haut.
Dans la pratique, il apparaît avantageux de micro-injecter la substance (a) ou des solutions salines (par exemple en milieu physiologique) de la substance (a), à raison d'un volume pouvant ne pas dépasser environ 10% par rapport au volume de la cellule-cible, par des micro-injections fractionnées et espacées entre elles, par exemple à des intervalles de 10 minutes, ou par une micro-injection en continu.
Il est préférable de respecter une attente entre la dernière micro-injection ou la fin de la micro-injection en continu et l'entrée en fonction du moyen pour l'activation de la susbtance toxique (a), afin que le passage de cette dernière dans l'ensemble des cellules transformées du site traité soit effectif. […]

[1] = tested on: cellules BALB/c 3T3 transfectées par pEJ-ras-H (cellules transformées); test: Killing of transformed cells by micro-injection followed by near-UV irradiation (400 nm); settings: micro-injection into transformed cells, irradiation at a frequency close to UV; checked by Trepan blue staining or microscopy
From the text: Cet exemple concerne la destruction de cellules transformées, par micro-injection de Lucifer Yellow CH, suivie d'une irradiation à 400 nm.
Pour la production de cellules transformées, on a utilisé des cellules BALB/c 3T3, ce système de transformation assurant la production in situ de cellules transformées sur une couche mono-cellulaire normale, et simule ainsi la cancérogenèse in vivo.
Des cellules BALB/c 3T3 ont été transfectées par un oncogène activé que l'on a isolé d'un carcinome de vessie humaire, le pEJ-ras-H; par cette opération, on a obtenu des cellules transformées. […] Lorsque de nombreuses cellules sont tuées dans un foyer transformé, le foyer entier se décolle du fond de la boîte de Pétri. L'élimination de cellules se vérifie habituellement par coloration au "Trepan blue" mais peut également être confirmée par observation attentive au microscope : ces cellules ne montrent pas de capacité de prolifération; un grand nombre d'entre elles sont décollées.

[2] = tested on: cellules épithéliales de foie de rat transformées (IAR 27 ou IAR 6-1) et non transformées (IAR 20); test: Co-culture of transformed and non-transformed cells: micro-injection, dye diffusion and killing after near-UV exposure
From the text: On a utilisé aussi des cellules épithéliales de foie de rat transformées et non transformées. Puisqu'à l'heure actuelle, il n'existe pas de mé-thode d'induction in situ de foyer épithélial transformée par des cancé-rogènes, on a cocultivé articifiellement des cellules épithéliales de foie de rat transformées et non transformées, de sorte que les deux types de cellules puissent être en contact. Lorsque les cellules transformées (IAR 27 ou IAR 6-1) sont cultivées avec des cellules non transformées (IAR 20), la frontière entre les deux types de cellules est clairement visible à cause de la différence de leur aspect morphologique.

[3] = tested on: foyers transformés de cellules BALB/c 3T3; test: Stimulation of gap junction communication by an exogenous compound and its effect on selective elimination
Experimental: L'efficacité d'élimination a également été augmentée par stimulation de la communication des "gap junctions" par un composé exogène : après addition de dibutyryl c-AMP (1mM) dans une boîte de Pétri qui contient des foyers transformés de cellules BALB/c 3T3, on a observé que les communications intercellulaires sont stimulées dans les foyers transformés et dans la monocouche non transformée; cependant, les deux types de cellules ne communiquent pas entre eux.

| Compound | destruction de cellules transformées (cellules transformées) | élimination sélective des cellules transformées [1] | mort des cellules-cibles ([2]; after exposure to near-UV radiation) | diffusion du colorant ([2]; micro-injection in co-culture of IAR 27 or IAR 6-1 with IAR 20) | élimination sélective dans les cellules transformées ([3]; 1mM added to the Petri dish, elimination by Lucifer Yellow CH micro-injection and irradiation) | communications intercellulaires ([3]; 1mM added to the Petri dish, in transformed foci and in the non-transformed monolayer, the two cell types do not communicate with each other) | spécificité de communication intercellulaire ([3]; prolonged treatment, transformed phenotypes then began to disappear) |
| --- | --- | --- | --- | --- | --- | --- | --- |
| Lucifer Yellow CH | destruction sélective complète | on a pu les tuer | la mort des cellules | diffusion sélective du colorant dans les cellules du même type | – | – | – |
| CCCC(=O)Nc1ncnc2c1ncn2[C@@H]1O[C@@H]2COP(=O)(O)O[C@H]2[C@H]1OC(=O)CCC [dibutyryl c-AMP] | – | – | – | – | plus facilement | stimulées | suppression de la spécificité de communication |
